# Several values for one entry are separate records, joined by “and”; a condition that tells them apart may be missing. Identical values can stand only once.
# What was measured:
# [1] = Body weight of rats over the 10-day period (Example 3); assay type: in vivo, rat; design: Body weight Difference: unit not given here; settings: Sennosides 3.35 mg/kg/day; for Body weight Difference, Mean / Body weight End Day 10, Mean: group mean; for Body weight Difference, Mean / Body weight Difference: Day 10 minus Day 1; for Body weight Difference / Body weight End Day 10: individual rats
# Method in brief: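 Healthy male S.D. rats, 6 per treatment, given test substances daily at 4–24 mg/kg/day (dose per substance), with untreated and 3.35 mg/kg/day sennoside controls. Body weight recorded each day over 10 days; standard food and water ad libitum, 12-hour light/dark cycle.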
# healthy male S.D. rats = assay: Feces production in rats over the 10-day period (Example 3); assay type: in vivo, rat; settings: Sennosides 3.35 mg/kg
# Method in brief: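 Male S.D. rats (n=6 per arm) received sennosides 3.35 mg/kg/day, STD05 or ARE at 8 or 24 mg/kg/day, single anthraquinones at 4 mg/kg/day, or CP at 8 mg/kg/day over 10 days, with untreated controls. On days 1, 5 and 10, rats in metabolic cages gave 24-h feces, which were weighed wet, counted and dried at 100° C. to derive water content.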
# [2] = Group I, STD05 8 mg/kg, ARE 8 mg/kg, Aloe-emodin 4 mg/kg, Rhein 4 mg/kg
# [3] = Group II, STD05 24 mg/kg, ARE 24 mg/kg, Chrysophanol 4 mg/kg, Emodin 4 mg/kg
# [4] = Group I, Day 1, STD05 8 mg/kg, ARE 8 mg/kg, Aloe-emodin 4 mg/kg, Rhein 4 mg/kg
# [5] = Group I, Day 5, STD05 8 mg/kg, ARE 8 mg/kg, Aloe-emodin 4 mg/kg, Rhein 4 mg/kg
# [6] = Group I, Day 10, STD05 8 mg/kg, ARE 8 mg/kg, Aloe-emodin 4 mg/kg, Rhein 4 mg/kg
# [7] = Group II, Day 1, STD05 24 mg/kg, ARE 24 mg/kg, Chrysophanol 4 mg/kg, Emodin 4 mg/kg
# [8] = Group II, Day 5, STD05 24 mg/kg, ARE 24 mg/kg, Chrysophanol 4 mg/kg, Emodin 4 mg/kg
# [9] = Group II, Day 10, STD05 24 mg/kg, ARE 24 mg/kg, Chrysophanol 4 mg/kg, Emodin 4 mg/kg
substance,measurement,setting,value
Sennosides,"Body weight Difference, Mean",[1]; [2],53 g
same,"Body weight End Day 10, Mean",[1]; [2],338 g
same,Body weight Difference,[1]; [2],45 (2×) and 60 and 35 and 65 and 70
same,Body weight End Day 10,[1]; [2],325 and 330 and 350 (2×) and 310 and 365
same,"Body weight Difference, Mean",[1]; [3],41 g
same,"Body weight End Day 10, Mean",[1]; [3],398 g
same,Body weight Difference,[1]; [3],30 and 45 and 40 (2×) and 35 and 55
same,Body weight End Day 10,"[1]; Group II, STD05 24 mg/kg, ARE 24 mg/kg, Chrysophanol 4 mg/kg, Emodin 4 mg/kg, in g (unit assumed)",370 and 395 and 405 and 360 and 410 and 445
same,Pellet count,healthy male S.D. rats; [4],101
same,Water content,healthy male S.D. rats; [4],45.69%
same,Wet Weight,healthy male S.D. rats; [4],18.72 g
same,Pellet count,healthy male S.D. rats; [5],119
same,Water content,healthy male S.D. rats; [5],48.68%
same,Wet Weight,healthy male S.D. rats; [5],26.16 g
same,Pellet count,healthy male S.D. rats; [6],146
same,Water content,healthy male S.D. rats; [6],57.4%
same,Wet Weight,healthy male S.D. rats; [6],36.38 g
same,Pellet count,healthy male S.D. rats; [7],134
same,Water content,healthy male S.D. rats; [7],61.09%
same,Wet Weight,healthy male S.D. rats; [7],36.19 g
same,Pellet count,healthy male S.D. rats; [8],118
same,Water content,healthy male S.D. rats; [8],61.53%
same,Wet Weight,healthy male S.D. rats; [8],36.42 g
same,Pellet count,healthy male S.D. rats; [9],132
same,Water content,healthy male S.D. rats; [9],53.99%
same,Wet Weight,healthy male S.D. rats; [9],36.21 g

# Source: patent publication US8466202B2, “Anthracenedione compounds” (Sunten Phytotech Co., Ltd., priority 2006, dated 2013)
